Legend:
[1] = target: Mast/stem cell growth factor receptor Kit (Homo sapiens, UniProt P10721); assay: Selectivity interaction (KinomeScan (DiscoverX)) EUB0001049a KIT; conditions: at 1 µM
[2] = target: Vascular endothelial growth factor receptor 1 (Homo sapiens) (UniProt P17948); assay: Selectivity interaction (KinomeScan (DiscoverX)) EUB0000666a FLT1; conditions: at 10 µM
[3] = target: Activin receptor type-1-like (Homo sapiens) (UniProt P37023); assay: Selectivity interaction (KinomeScan (DiscoverX)) EUB0000666a ACVRL1; conditions: at 10 µM
[4] = target: Calcium/calmodulin-dependent protein kinase type II subunit beta (Homo sapiens) (UniProt Q13554); assay: Selectivity interaction (KinomeScan (DiscoverX)) EUB0000229b CAMK2B; conditions: at 10 µM
[5] = target: Androgen receptor (Homo sapiens) (UniProt P10275); assay: Selectivity interaction (Eurofins CEREP Diversity Profile (receptors and ion channels)) EUB0000279b AR; conditions: at 10 µM
[6] = target: Mitogen-activated protein kinase kinase kinase 4 (Homo sapiens) (UniProt Q9Y6R4); assay: Selectivity interaction (Kinase panel (KiNativ target engagement assay in Jurkat cells)) EUB0001635a MAP3K4; assay type: cell-based; conditions: Selectivity number of off-targets 0.0, Selectivity number of targets 233.0, Source Knowledge https://www.sciencedirect.com/science/article/pii/S2451945619300674?via%3Dihub, at 1 µM
[7] = target: BMP-2-inducible protein kinase (Homo sapiens) (UniProt Q9NSY1); conditions: at 10 µM
[8] = target: T1, Cytoplasmic tyrosine-protein kinase BMX (Homo sapiens) (UniProt P51813); conditions: at 10 µM
T1 sequence (whole entry): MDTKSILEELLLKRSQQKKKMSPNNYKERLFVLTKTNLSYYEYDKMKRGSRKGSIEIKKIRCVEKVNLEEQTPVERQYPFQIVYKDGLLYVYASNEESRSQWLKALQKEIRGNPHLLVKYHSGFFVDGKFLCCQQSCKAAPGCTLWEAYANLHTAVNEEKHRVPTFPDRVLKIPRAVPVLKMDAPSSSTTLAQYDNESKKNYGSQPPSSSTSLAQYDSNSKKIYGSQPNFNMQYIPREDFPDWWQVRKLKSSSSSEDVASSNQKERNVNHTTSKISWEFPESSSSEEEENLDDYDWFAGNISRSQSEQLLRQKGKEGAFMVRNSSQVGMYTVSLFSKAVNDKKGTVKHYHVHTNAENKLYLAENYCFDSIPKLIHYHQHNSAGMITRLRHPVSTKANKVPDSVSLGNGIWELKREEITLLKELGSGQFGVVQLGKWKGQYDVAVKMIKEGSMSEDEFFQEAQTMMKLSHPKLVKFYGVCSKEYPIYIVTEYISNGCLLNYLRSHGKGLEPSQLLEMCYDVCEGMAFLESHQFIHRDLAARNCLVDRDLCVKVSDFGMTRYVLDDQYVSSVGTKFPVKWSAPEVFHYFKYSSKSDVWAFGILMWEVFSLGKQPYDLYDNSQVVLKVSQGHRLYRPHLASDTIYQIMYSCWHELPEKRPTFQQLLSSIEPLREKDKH

[9] = target: Serine/threonine-protein kinase PRP4 homolog (Homo sapiens) (UniProt Q13523); assay: Selectivity interaction (ActivX KiNativ screen (kinase selectivity in THP-1 cell lysates)) EUB0000639a PRPF4; assay type: subcellular; conditions: lysate, at 0.2 µM
[10] = target: Tyrosine-protein kinase Fes/Fps (Homo sapiens) (UniProt P07332); assay: Selectivity interaction (KinomeScan (DiscoverX)) EUB0000595a FES; conditions: at 10 µM
[11] = target: Tyrosine-protein kinase receptor Tie-1 (Homo sapiens) (UniProt P35590); assay: Selectivity interaction (KinomeScan (DiscoverX)) EUB0000092b TIE1; conditions: at 10 µM
[12] = target: Tyrosine-protein kinase receptor UFO (Homo sapiens) (UniProt P30530); assay: Selectivity interaction (KinomeScan (DiscoverX)) EUB0000045b AXL
Tyrosine-protein kinase receptor UFO (Homo sapiens), sequence (P30530 whole entry): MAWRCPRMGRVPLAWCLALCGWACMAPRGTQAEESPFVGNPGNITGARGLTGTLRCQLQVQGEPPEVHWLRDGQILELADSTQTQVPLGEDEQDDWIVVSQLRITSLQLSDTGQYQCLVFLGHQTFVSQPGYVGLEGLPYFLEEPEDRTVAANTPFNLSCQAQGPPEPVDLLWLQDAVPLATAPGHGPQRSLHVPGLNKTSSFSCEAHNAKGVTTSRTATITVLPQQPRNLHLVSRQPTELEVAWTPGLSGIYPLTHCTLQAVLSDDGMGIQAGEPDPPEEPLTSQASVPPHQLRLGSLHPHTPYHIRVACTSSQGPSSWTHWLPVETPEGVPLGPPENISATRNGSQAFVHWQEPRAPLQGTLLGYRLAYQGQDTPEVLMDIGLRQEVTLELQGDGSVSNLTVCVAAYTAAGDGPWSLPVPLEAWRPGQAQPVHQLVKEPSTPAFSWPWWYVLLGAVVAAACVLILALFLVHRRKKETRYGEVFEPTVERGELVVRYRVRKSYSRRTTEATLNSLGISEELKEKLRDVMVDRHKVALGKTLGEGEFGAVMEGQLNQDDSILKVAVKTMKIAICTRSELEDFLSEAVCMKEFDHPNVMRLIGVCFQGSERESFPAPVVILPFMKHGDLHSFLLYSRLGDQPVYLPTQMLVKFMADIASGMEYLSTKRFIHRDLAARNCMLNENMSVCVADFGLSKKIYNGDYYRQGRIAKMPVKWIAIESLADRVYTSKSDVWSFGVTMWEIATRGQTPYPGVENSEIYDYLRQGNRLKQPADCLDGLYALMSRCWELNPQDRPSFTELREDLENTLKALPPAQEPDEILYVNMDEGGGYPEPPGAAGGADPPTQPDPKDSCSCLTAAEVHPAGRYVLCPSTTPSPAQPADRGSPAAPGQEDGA

[13] = target: Cyclin-dependent kinase 5 (Homo sapiens, UniProt Q00535); assay: Selectivity interaction (KinomeScan (DiscoverX)) EUB0000618a CDK5; conditions: at 10 µM
[14] = target: Ribosomal protein S6 kinase alpha-4 (Homo sapiens) (UniProt O75676); conditions: at 10 µM
Ribosomal protein S6 kinase alpha-4 (Homo sapiens), sequence (O75676 whole entry, looked up): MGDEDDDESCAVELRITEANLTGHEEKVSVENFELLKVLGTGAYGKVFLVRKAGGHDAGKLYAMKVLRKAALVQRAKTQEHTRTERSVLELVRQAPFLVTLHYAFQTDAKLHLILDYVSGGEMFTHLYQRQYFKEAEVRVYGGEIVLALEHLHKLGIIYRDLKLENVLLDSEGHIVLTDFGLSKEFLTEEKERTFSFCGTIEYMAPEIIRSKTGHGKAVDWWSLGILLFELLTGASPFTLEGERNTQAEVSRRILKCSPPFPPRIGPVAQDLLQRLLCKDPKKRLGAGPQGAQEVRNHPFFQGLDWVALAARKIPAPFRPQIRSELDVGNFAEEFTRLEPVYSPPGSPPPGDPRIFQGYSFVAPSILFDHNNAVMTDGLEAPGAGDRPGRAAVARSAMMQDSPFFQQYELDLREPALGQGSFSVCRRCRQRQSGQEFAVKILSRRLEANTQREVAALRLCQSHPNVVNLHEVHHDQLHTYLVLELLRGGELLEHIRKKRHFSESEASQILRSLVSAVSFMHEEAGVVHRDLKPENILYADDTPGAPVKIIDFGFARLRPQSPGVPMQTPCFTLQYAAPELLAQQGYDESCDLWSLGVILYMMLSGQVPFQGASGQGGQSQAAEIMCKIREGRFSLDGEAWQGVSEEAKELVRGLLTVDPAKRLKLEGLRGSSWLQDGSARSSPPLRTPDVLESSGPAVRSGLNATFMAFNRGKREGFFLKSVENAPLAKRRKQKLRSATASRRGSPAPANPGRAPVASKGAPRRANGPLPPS

[15] = target: Tyrosine-protein kinase ABL2 (Homo sapiens, UniProt P42684); conditions: at 10 µM
[16] = target: Receptor-type tyrosine-protein kinase FLT3 (Homo sapiens) (UniProt P36888); assay: Selectivity interaction (KinomeScan (DiscoverX)) EUB0001619a FLT3; conditions: at 1 µM
[17] = target: Serine/threonine-protein kinase pim-1 (Homo sapiens, UniProt P11309); assay: Selectivity interaction (KinomeScan (DiscoverX)) EUB0000655a PIM1; conditions: at 10 µM
Serine/threonine-protein kinase pim-1, sequence (P11309 whole entry, looked up): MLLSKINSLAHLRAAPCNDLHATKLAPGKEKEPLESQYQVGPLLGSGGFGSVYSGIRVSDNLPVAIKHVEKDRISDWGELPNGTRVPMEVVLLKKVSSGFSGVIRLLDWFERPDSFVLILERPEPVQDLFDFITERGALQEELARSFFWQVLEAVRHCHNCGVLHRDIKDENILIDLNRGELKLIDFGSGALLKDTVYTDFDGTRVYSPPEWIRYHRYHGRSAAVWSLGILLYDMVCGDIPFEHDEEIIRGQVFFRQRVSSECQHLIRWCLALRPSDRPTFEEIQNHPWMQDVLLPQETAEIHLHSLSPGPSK

[18] = target: T2, Dual specificity mitogen-activated protein kinase kinase 4 (Homo sapiens) (UniProt P45985); assay: Selectivity interaction (KinomeScan (DiscoverX)) EUB0000655a MAP2K4; conditions: at 10 µM
T2 sequence (whole entry): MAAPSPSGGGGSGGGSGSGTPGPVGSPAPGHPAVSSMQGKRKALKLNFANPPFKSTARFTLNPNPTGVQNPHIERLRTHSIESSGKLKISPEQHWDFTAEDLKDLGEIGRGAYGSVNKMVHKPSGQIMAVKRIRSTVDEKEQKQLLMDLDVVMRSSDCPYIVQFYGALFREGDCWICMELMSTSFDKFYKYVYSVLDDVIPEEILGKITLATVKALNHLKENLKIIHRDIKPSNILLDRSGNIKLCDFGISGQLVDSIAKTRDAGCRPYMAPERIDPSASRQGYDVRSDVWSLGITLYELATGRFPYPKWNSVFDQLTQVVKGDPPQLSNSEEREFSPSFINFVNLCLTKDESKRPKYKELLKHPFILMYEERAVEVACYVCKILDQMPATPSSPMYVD

[19] = tested on: eIF-2-alpha kinase GCN2 (Homo sapiens), Q9P2K8 [S808G]; assay: Selectivity interaction (KinomeScan (DiscoverX)) EUB0000695a EIF2AK4; conditions: at 100 nM
[20] = target: T3, Fibroblast growth factor receptor 4 (Homo sapiens, UniProt P22455); assay: Selectivity interaction (KinomeScan (DiscoverX)) EUB0000695a FGFR4; conditions: at 100 nM
T3 sequence (P22455 22-802 limits assumed): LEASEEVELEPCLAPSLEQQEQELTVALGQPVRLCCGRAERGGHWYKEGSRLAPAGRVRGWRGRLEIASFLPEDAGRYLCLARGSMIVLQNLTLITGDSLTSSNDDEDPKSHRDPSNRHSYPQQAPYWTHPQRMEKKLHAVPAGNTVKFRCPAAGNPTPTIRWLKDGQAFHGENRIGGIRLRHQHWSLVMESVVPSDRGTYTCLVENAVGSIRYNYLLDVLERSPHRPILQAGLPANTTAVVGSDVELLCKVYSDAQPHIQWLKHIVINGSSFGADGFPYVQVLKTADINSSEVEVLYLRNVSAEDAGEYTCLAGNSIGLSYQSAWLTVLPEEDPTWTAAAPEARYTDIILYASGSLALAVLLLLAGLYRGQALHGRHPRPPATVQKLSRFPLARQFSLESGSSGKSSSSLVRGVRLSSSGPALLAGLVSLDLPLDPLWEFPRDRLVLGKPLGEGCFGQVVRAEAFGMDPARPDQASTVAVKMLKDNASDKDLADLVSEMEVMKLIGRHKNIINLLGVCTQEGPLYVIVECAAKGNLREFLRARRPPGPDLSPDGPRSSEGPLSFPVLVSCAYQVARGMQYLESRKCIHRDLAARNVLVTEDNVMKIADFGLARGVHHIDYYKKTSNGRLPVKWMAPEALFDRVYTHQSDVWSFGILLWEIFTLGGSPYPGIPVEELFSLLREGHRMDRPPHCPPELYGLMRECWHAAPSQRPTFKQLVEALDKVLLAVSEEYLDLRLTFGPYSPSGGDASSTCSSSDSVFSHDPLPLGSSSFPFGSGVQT

[21] = target: Cyclin-dependent kinase 13 (Homo sapiens, UniProt Q14004); assay: Selectivity interaction (KinomeScan (DiscoverX)) EUB0000607a CDK13; conditions: at 10 µM
Aurora kinase B = Aurora kinase B (Homo sapiens, UniProt Q96GD4); assay: Selectivity interaction (Kinase panel (Z-LYTE Assay)) EUB0001632a AURKB; conditions: at 10 µM
Aurora kinase B, sequence (Q96GD4 whole entry): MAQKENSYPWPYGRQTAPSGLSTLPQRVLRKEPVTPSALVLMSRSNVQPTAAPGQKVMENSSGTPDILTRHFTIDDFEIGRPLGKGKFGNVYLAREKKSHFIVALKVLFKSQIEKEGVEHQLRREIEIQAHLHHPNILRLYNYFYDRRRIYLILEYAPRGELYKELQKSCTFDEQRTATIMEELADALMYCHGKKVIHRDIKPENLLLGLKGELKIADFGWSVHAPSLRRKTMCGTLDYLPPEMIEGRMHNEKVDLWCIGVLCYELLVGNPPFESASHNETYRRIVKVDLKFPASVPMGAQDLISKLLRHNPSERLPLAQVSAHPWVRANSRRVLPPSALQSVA

[22] = target: T3, Fibroblast growth factor receptor 4; assay: Selectivity interaction (Kinase panel (Z-LYTE Assay)) EUB0001632a FGFR4; conditions: at 10 µM
[23] = target: MAP kinase-activated protein kinase 3 (Homo sapiens) (UniProt Q16644); assay: Selectivity interaction (Kinase panel (Z-LYTE Assay)) EUB0001632a MAPKAPK3; conditions: at 10 µM
[24] = target: Sodium-dependent noradrenaline transporter (Homo sapiens, UniProt P23975); assay: Selectivity interaction (Panel of non-epigenetic targets (kinases, GPCRs, ion channels, and transporters, Eurofins) ) EUB0000271b SLC6A2; conditions: at 1 µM
Sodium-dependent noradrenaline transporter, sequence (P23975 whole entry): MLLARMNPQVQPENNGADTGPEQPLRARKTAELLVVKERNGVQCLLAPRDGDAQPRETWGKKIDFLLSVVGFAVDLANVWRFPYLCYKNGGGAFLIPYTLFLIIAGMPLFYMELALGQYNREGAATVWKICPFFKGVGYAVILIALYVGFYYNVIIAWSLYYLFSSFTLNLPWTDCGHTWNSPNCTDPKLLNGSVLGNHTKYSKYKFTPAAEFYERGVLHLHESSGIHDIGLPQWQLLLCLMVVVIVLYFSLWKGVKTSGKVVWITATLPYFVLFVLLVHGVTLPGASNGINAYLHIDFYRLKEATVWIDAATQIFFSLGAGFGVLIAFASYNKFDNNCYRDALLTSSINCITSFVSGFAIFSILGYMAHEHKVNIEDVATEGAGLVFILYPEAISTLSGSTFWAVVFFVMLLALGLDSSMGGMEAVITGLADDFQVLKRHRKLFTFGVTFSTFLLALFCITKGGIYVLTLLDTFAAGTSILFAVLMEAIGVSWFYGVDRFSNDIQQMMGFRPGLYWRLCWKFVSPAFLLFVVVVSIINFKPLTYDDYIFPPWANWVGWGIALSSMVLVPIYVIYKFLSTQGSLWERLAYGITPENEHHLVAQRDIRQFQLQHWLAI

Vascular endothelial growth factor receptor 1 (Homo sapiens), sequence (P17948 whole entry): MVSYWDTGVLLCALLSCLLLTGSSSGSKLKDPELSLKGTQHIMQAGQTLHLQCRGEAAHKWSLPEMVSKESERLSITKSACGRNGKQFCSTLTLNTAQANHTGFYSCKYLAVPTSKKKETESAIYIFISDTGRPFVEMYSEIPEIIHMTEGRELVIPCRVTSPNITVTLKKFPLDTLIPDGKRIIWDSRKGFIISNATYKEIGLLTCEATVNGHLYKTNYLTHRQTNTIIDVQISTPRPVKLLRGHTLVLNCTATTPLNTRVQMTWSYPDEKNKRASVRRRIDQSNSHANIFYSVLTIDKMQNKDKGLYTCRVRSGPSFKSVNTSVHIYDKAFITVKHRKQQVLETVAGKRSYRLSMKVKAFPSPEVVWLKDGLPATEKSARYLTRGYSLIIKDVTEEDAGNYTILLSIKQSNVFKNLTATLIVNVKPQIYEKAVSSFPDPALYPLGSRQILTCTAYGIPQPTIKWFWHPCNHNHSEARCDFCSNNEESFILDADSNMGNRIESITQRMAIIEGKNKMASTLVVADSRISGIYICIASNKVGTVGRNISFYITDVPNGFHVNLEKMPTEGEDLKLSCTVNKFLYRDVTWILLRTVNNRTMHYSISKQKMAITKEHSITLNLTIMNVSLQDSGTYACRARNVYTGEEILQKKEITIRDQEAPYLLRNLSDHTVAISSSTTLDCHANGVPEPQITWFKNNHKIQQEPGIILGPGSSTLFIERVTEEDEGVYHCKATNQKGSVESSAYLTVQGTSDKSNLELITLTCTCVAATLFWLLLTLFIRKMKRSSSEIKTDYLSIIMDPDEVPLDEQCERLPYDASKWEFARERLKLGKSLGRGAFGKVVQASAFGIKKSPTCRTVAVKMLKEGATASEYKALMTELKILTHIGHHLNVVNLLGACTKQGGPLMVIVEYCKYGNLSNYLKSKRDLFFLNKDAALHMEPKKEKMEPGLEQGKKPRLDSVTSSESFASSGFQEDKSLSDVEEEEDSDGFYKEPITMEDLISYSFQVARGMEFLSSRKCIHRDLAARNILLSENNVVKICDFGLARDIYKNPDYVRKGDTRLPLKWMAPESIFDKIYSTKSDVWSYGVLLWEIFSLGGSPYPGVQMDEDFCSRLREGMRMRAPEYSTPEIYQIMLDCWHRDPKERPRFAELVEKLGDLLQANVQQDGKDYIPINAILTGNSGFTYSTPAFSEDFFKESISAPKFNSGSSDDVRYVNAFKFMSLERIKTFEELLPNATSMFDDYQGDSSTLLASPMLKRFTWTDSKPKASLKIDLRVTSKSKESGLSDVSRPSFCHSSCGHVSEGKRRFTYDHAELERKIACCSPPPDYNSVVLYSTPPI

COc1cc(Nc2nc(C)cc(-c3cnn4nc(OC)ccc34)n2)cc(C(F)(F)F)c1
% of control [1]: 75%

O=C(NOC[C@H](O)CO)c1ccc(F)c(F)c1Nc1ccc(I)cc1F
% of control [2]: 94%
% of control [3]: 100%

COc1cc(N(C)c2ccnc3ccc(C(F)(F)F)cc23)cc(OC)c1OC
% binding [4]: 83%

CC(=O)c1cc(-c2ccccc2OCC2CC2)c2ncccn12
% of control [5]: 105%

C=CC(=O)Nc1ccc(C(=O)Nc2[nH]nc3c2CN(C(=O)N[C@H](CN(C)C)c2ccccc2)C3(C)C)cc1
% of engagement [6]: -2.6%

CCN(CC)CCCCNc1ncc2cc(-c3cc(OC)cc(OC)c3)c(NC(=O)NC(C)(C)C)nc2n1
% of control [7]: 100%
% of control [8]: 100%

CC[C@@H]1[C@H](F)C(=O)N[C@@H]1COc1nccc2cc(C(N)=O)c(OC)cc12 [ZIMLOVISERTIB]
% of inhibition [9]: 28.3%

COCC(=O)NC/C=C/c1ccc2ncnc(Nc3ccc(Oc4ccc(C)nc4)c(C)c3)c2c1 [CP-724714]
% of control [10]: 100%

CCC(=O)N1CCN(c2ccc(-n3c(=O)ccc4cnc5ccc(-c6cnc7ccccc7c6)cc5c43)cc2C(F)(F)F)CC1
% of control [11]: 100%

C=CC(=O)Nc1cc(-n2c(=O)ccc3cnc4ccc(-c5ccc(NS(C)(=O)=O)cc5)cc4c32)ccc1C
% of control ([12]; at 1 µM): 100%
% of control ([12]; at 10 µM): 100%

O[C@H]1CC[C@H](Nc2ncc3nc(Nc4c(F)cc(F)cc4F)n([C@H]4CCOC4)c3n2)CC1
% of control [13]: 100%

Cc1cc([C@@H](C)Nc2ccccc2C(=O)O)c2nc(N3CCOCC3)cc(=O)n2c1 [AZD-6482]
% of control [14]: 94%
% of control [15]: 95%

N#Cc1cccc(-c2c[nH]c3ncnc(N4CCOCC4)c23)c1
% of control [16]: 92%

CN(C)CCOc1ccc(-c2nc(-c3ccncc3)c(-c3ccc4c(c3)CC/C4=N\O)[nH]2)cc1
% of control [17]: 86%
% of control [18]: 100%

Cc1cc(F)c(C(=O)Nc2cccc(-c3nncn3C(C)C)n2)cc1-n1cnc(C2CC2)c1
% of control [19]: 77%
% of control [20]: 100%

CNC(=O)Nc1ccc(-c2nc(N3CC4CCC(C3)O4)c3cnn(C4CCC5(CC4)OCCO5)c3n2)cc1
% of control [21]: 84%

Cn1cc(-n2cnc3c(NCc4nc5cc(Cl)c(Cl)cc5[nH]4)nc(N4CCOCC4)nc32)cn1
% of control (Aurora kinase B): 11.8%
% of control [22]: 3.57%
% of control [23]: 2.63%

Cc1cc(C)cc([C@@H]2c3cc(C)ccc3NC(=O)CN2C(=O)c2ccc(Br)s2)c1
% of inhibition [24]: -4%

From ChEMBL document CHEMBL5465560, “Selectivity Literature for EUbOPEN Chemogenomic Library” (2024)
